Read-outs that look alike come from different tables or passages of the source.
Key:
[1] = molecular target: CDK2/Cyclin E1 (Homo sapiens (Human), UniProt P24941); assay: CDK2/Cyclin E1 Full length ADP-Glo Kinase Assay; format: biochemical; details: 20 uM ATP, read-out: CDK2/ CyclinE1 IC50
Procedure: CDK2/Cyclin E1 Full length ADP-Glo Kinase Assay
(§1) The purpose of CDK2/Cyclin E1 assay is to evaluate the inhibition (% inhibition and IC50 values) of small molecule inhibitors by using a Luminescent based ADP-Glo assay. CDK2/Cyclin E1 full length catalyzes the production of ADP from ATP. ADP-Glo assay monitors ADP producing biochemical reactions. ADP-Glo is performed in 2 steps upon completion of kinase reaction: a combined termination of kinase reaction and depletion of remaining ATP in the first step, and conversion of generated ADP to ATP and the newly produced ATP to light output using luciferase/luciferin reaction in the second step. The luminescent signal generated is proportional to the ADP concentration produced and is correlated with the kinase activity. CDK2/Cyclin E1 was purchased from Eurofins (Cat 14-475M). […] The assay was initiated with the addition of ATP-containing substrate solution, following a 30-minute pre-incubation of enzyme and inhibitor at room temperature in the reaction mixture. The reaction was stopped after 90 minutes at room temperature by the addition of 10 uL of ADP-GLO Reagent. After a 90 minute incubation, 20 uL of Kinase Detection Reagent was added. Samples were incubated for 40 minutes, after which plate well luminescence was measured on a Envision microplate reader. The IC50 determinations were made from a plot of the fractional velocity as a function of inhibitor concentration fit to the 4 parameters IC50 equation.

[2] = molecular target: CDK1/Cyclin B1 (Homo sapiens (Human), UniProt P06493); assay: CDK1/Cyclin B1 ADP-Glo Kinase Assay; format: biochemical
CDK1/Cyclin B1, sequence (P06493 whole entry): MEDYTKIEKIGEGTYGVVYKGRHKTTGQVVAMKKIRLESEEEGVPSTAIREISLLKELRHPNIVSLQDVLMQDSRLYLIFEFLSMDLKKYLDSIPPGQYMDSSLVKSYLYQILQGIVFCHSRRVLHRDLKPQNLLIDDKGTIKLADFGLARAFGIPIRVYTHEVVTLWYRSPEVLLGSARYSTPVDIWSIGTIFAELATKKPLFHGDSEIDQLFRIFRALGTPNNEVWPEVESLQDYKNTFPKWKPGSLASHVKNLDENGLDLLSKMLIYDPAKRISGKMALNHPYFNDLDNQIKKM
CDK1/Cyclin B1, sequence (P14635 whole entry partner): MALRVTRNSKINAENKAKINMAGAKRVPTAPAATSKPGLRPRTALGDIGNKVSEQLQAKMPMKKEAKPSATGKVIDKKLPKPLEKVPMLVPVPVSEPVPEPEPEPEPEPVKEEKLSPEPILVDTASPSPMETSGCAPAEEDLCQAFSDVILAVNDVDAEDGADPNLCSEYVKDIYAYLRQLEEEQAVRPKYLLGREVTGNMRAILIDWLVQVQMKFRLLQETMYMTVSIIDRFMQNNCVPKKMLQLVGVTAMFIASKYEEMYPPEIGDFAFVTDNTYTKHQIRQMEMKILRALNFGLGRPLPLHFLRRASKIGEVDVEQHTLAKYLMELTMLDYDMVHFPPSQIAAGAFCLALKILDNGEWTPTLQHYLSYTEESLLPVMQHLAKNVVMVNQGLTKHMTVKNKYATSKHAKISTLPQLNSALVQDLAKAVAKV
Procedure: CDK1/Cyclin B1 ADP-Glo Kinase Assay
as §1, with “CDK1/Cyclin B1” for “CDK2/Cyclin E1”, “CDK1/Cyclin B1” for “CDK2/Cyclin E1 full length”, “Carna” for “Eurofins”, “04-102).” for “14-475M).”

[3] = molecular target: CDK4/Cyclin D1 (Homo sapiens (Human), UniProt P11802); assay: CDK4/Cyclin D1 CHEF Assay (AQT0258 peptide); format: biochemical; details: 200 uM ATP, read-out: CDK4/ CyclinD1 AQT IC50
CDK4/Cyclin D1, sequence (P11802 whole entry): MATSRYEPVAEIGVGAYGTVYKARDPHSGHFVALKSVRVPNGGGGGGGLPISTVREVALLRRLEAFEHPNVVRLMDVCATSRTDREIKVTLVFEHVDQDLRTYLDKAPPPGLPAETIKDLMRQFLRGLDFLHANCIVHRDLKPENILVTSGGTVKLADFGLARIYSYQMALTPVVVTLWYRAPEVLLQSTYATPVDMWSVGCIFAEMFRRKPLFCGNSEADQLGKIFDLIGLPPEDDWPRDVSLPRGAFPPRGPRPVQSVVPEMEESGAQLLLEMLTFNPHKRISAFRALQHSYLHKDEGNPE
CDK4/Cyclin D1, sequence (P24385 whole entry partner): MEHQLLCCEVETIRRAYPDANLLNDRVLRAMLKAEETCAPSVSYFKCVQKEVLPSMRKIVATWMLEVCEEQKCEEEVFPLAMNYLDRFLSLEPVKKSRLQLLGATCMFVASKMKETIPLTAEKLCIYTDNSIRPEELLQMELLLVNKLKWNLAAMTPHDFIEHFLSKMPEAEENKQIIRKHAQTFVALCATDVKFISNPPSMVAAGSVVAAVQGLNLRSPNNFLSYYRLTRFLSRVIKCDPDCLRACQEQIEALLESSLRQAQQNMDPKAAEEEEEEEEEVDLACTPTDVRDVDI
Text: CDK4/Cyclin D1 CHEF Assay
The purpose of CDK4/Cyclin D1 assay is to evaluate the inhibition (% inhibition and IC50 values) of small molecule inhibitors by using a Chelation-Enhance Fluorescence (CHEF) assay. In a CHEF assay, phosphorylation of a peptide substrate results in proportional increase in fluorescence. CHEF kinase assay use peptide substrates containing a synthetic alpha-amino acid with a side chain bearing an 8-hydroxyquinoline derivative (sulfonamido-oxide, Sox). Upon phosphorylation of a nearby serine, threonine or tyrosine and in the presence of Mg(II), the spectral properties of the Sox residue are altered, emitting 485 nm wavelength light when excited with a 360 nm wavelength light source. CDK4/Cyclin D1 catalyzes the phosphoryl transfer to the SOX-labeled substrate peptide AQT0258 from Assayquant Technologies. […] The reaction was initiated with the addition of substrate solution, following a 30-minute pre-incubation of enzyme and inhibitor at 22° C. in the reaction mix. Reactions were allowed to proceed for 3 hrs at 22° C., followed by fluorescence read of the reaction. The IC50 determinations were made from a plot of the fractional velocity as a function of inhibitor concentration fit to the 4 parameters IC50 equation.

[4] = tested on: OVCAR-3 cells; assay: Cell Growth Inhibition, OVCAR-3 (CellTiterGlo, 6 days); format: cell-based; details: Homo sapiens, 144 h, OVCAR-3, 6-day treatment
Text: (§2) MCF-7 and OVCAR-3 cells were used to evaluate the anti-proliferation activity of the CDK inhibitors. MCF-7 (ATCC, HTB-22) cells are epithelial cells from a patient with ER+ metastatic adenocarcinoma. OVCAR-3 (ATCC, HTB-161) cells were derived from malignant ascites of a patient with ovarian cancer and are known to have CCNE1 amplification. Both cell lines were maintained in RPMI media supplemented with 10% fetal bovine serum. For cell growth inhibition assay, CDK inhibitors in DMSO solution were dispensed with either Echo 655 (Beckman Coulter) or Tecan D300e (HP) into 384-well plates (Corning #3765) and the 384-well plates were UV-sterilized prior to the assay. The inhibitors were typically tested in the 10-10,000 nM concentration range with half-log serial dilutions. MCF-7 or OVCAR-3 (500 cells/30 μL/well) were added to each well using Multidrop Combi (ThermoFisher) using standard cassettes. The assay plates with cells were cultured at 37° C., 5% CO2 for 6 days. At the end of the 6-day treatment, 30 μL of CellTiterGlo 2.0 (Promega) was added to each well and the luminescent signal was read using CLARIOstar plus (BMG). The percentage of cell growth inhibition (% CGI) was calculated using the following formula 00 CGI=100-100×luminescencesampie/luminescencecontroi. The half maximal inhibitory concentration (IC50) was determined by nonlinear curve fitting (four parameters, variable slope).

[5] = molecular target: CDK6/Cyclin D3 (Homo sapiens (Human), UniProt Q00534); assay: CDK6/Cyclin D3 ADP-Glo Kinase Assay; format: biochemical; details: 100 uM ATP, read-out: CDK6/ CyclinD3 IC50
CDK6/Cyclin D3, sequence (Q00534 whole entry): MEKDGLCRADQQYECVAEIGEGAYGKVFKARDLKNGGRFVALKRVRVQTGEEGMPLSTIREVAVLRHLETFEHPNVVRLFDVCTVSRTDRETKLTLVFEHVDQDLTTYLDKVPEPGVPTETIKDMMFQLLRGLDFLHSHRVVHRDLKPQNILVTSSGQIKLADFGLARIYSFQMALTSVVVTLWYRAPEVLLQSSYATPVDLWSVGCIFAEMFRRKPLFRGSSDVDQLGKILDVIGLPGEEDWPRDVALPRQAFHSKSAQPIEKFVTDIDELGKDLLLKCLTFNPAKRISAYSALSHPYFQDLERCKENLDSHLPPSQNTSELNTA
CDK6/Cyclin D3, sequence (P30281 whole entry partner): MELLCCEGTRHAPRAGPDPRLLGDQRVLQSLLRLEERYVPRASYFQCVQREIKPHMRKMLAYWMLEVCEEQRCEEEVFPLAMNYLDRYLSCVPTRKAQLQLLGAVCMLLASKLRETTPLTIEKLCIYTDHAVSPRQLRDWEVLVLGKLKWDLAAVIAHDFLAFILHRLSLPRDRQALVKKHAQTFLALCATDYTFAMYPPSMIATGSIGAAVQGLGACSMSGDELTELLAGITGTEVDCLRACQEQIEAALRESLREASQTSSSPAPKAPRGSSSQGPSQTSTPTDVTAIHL
Procedure: CDK6/Cyclin D3 ADP-Glo Kinase Assay
The purpose of the CDK6/Cyclin D3 assay is to evaluate the inhibition (% inhibition and IC50 values) in the presence of small molecule inhibitors by using a Luminescent based ADP-Glo assay. CDK6/Cyclin D3 catalyzes the production of ADP from ATP. ADP-Glo assay monitors ADP producing biochemical reactions. ADP-Glo is performed in 2 steps upon completion of kinase reaction: a combined termination of kinase reaction and depletion of remaining ATP in the first step, and conversion of generated ADP to […] and the newly produced ATP to light output using luciferase/luciferin reaction in the second step. The luminescent signal generated is proportional to the ADP concentration produced and is correlated with the kinase activity CDK6/Cyclin D3 was purchased from Carna. […] The assay was initiated with the addition of ATP-containing substrate solution, following a 30-minute pre-incubation of enzyme and inhibitor at room temperature in the reaction mixture. The reaction was stopped after 90 minutes at room temperature by the addition of 10 uL of ADP-GLO Reagent. After a 90-minute incubation, 20 uL of Kinase Detection Reagent was added. Samples were incubated for 40 minutes, after which plate well luminescence was measured on a Envision microplate reader. The IC50 determinations were made from a plot of the fractional velocity as a function of inhibitor concentration fit to the 4 parameters IC50 equation.

[6] = tested on: MCF-7 cells; assay: Cell Growth Inhibition, MCF-7 (CellTiterGlo, 6 days); format: cell-based; details: Homo sapiens, MCF7, 144 h, MCF-7, 6-day treatment
Text: as §2

[7] = ADP-Glo, 80 uM ATP, read-out: CDK1 Cyclin B1 IC50

Row | Structure (SMILES) | IC50 [1] [nM] | IC50 [2, 7] [nM] | IC50 [3] [nM] | IC50 [4] [nM] | IC50 [5] [nM] | IC50 [6] [nM] | IC50 [2] [nM]
1 | Cc1cc2cnc(Nc3cnn(CC4(N(C)C)CC4)c3)nc2c(N2CCC3(C2)CC3(F)F)n1 (stereo not drawn) [Compound 36, 8-(1,1-difluoro-5-azaspiro[2.4]heptan-5-yl)-N-(1-((1-(dimethylamino)cyclopropyl)methyl)-1H-pyrazol-4-yl)-6-methylpyrido[3,4-d]pyrimidin-2-amine] | 200 to 500 | > 2000 | 200 to 500 | > 2000 | 500 to 2000 | > 2000 | 
2 | Cc1cc2cnc(NC3CCN(S(=O)(=O)C4CC4)CC3)nc2c(N2CC(CS(C)(=O)=O)C2)n1 [Compound 74, N-(1-(cyclopropylsulfonyl)piperidin-4-yl)-6-methyl-8-(3-((methylsulfonyl)methyl)azetidin-1-yl)pyrido[3,4-d]pyrimidin-2-amine] | < 200 | 500 to 2000 | 200 to 500 | > 2000 | 200 to 500 | > 2000 | 
3 | [2H]C([2H])([2H])N1CC2(CN(c3nc(C)cc4cnc(NC5CCN(S(=O)(=O)c6cnn(C)c6)CC5)nc34)CC2(F)F)C1 [Example 11, 8-(8,8-difluoro-2-(methyl-d3)-2,6-diazaspiro[3.4]octan-6-yl)-6-methyl-N-(1-((1-methyl-1H-pyrazol-4-yl)sulfonyl)piperidin-4-yl)pyrido[3,4-d]pyrimidin-2-amine] | < 200 |  | < 200 | 200 to 500 | < 200 | 500 to 2000 | < 200
4 | COCCN1CC2(C1)CN(c1nc(C3CC3)cc3cnc(NC4CCN(S(=O)(=O)CC5CCC5)CC4)nc13)C2 [Compound 64, N-(1-((cyclobutylmethyl)sulfonyl)piperidin-4-yl)-6-cyclopropyl-8-(6-(2-methoxyethyl)-2,6-diazaspiro[3.3]heptan-2-yl)pyrido[3,4-d]pyrimidin-2-amine] | < 200 | 500 to 2000 | < 200 | > 2000 | 200 to 500 | > 2000 | 
5 | Cc1cc2cnc(NC3CCN(S(=O)(=O)C4CC4)CC3)nc2c(N2CC3(CC(O)C3)C2)n1 [Compound 66, 2-(2-((1-(cyclopropylsulfonyl)piperidin-4-yl)amino)-6-methylpyrido[3,4-d]pyrimidin-8-yl)-2-azaspiro[3.3]heptan-6-ol] | < 200 | 500 to 2000 | < 200 | 500 to 2000 | < 200 | 500 to 2000 | 
6 | Cc1cc2cnc(NC3CCN(S(=O)(=O)C4CC4)CC3)nc2c(N2CC3(CNC3)C2)n1 [Compound 32, N-(1-(cyclopropylsulfonyl)piperidin-4-yl)-6-methyl-8-(2,6-diazaspiro[3.3]heptan-2-yl)pyrido[3,4-d]pyrimidin-2-amine] | < 200 | 500 to 2000 | < 200 | 500 to 2000 | < 200 | 500 to 2000 | 
7 | Cc1cc2cnc(NC3CCN(S(=O)(=O)C4CC4)CC3)nc2c(N2CCC(OC(F)F)C2)n1 (stereo not drawn) [Compound 58, N-(1-(cyclopropylsulfonyl)piperidin-4-yl)-8-(3-(difluoromethoxy)pyrrolidin-1-yl)-6-methylpyrido[3,4-d]pyrimidin-2-amine] | < 200 | < 200 | < 200 | 500 to 2000 | < 200 | 500 to 2000 | 
8 | Cc1cc2cnc(NC3CCN(S(=O)(=O)c4cnn(C)c4)CC3)nc2c(N2CC3(CCNCC3(F)F)C2)n1 [Compound 87, 8-(5,5-difluoro-2,7-diazaspiro[3.5]nonan-2-yl)-6-methyl-N-(1-((1-methyl-1H-pyrazol-4-yl)sulfonyl)piperidin-4-yl)pyrido[3,4-d]pyrimidin-2-amine] | < 200 | < 200 | < 200 | 200 to 500 | < 200 | 500 to 2000 | 
9 | CN1Cc2ccc(Nc3ncc4ccnc(N5CC6(C5)CS(=O)(=O)C6)c4n3)cc2C1 [Compound 24, 6-(2-((2-methylisoindolin-5-yl)amino)pyrido[3,4-d]pyrimidin-8-yl)-2-thia-6-azaspiro[3.3]heptane 2,2-dioxide] | < 200 | 500 to 2000 | < 200 | 500 to 2000 | < 200 | 500 to 2000 | 
10 | Cc1cc2cnc(Nc3ccc4c(c3)CN(C)C4)nc2c(N2CC3(C2)CN(C2CC2)C3)n1 [Compound 44, 8-(6-cyclopropyl-2,6-diazaspiro[3.3]heptan-2-yl)-6-methyl-N-(2-methylisoindolin-5-yl)pyrido[3,4-d]pyrimidin-2-amine] | > 2000 | > 2000 | 200 to 500 | > 2000 | 500 to 2000 | > 2000 | 
11 | Cc1cc2cnc(NC3CCN(S(=O)(=O)C4(C)CC4)CC3)nc2c(N2CCC3(CN(C)C3)C2)n1 [Compound 59, 6-methyl-8-(2-methyl-2,6-diazaspiro[3.4]octan-6-yl)-N-(1-((1-methylcyclopropyl)sulfonyl)piperidin-4-yl)pyrido[3,4-d]pyrimidin-2-amine] | < 200 | 500 to 2000 | < 200 | 500 to 2000 | < 200 | 500 to 2000 | 
